Measurements as given in US20110086759A1, “CHEMICAL COMPOUNDS” (SYNGENTA CROP PROTECTION, INC., priority 2007, published 2011).

Legend:
Setaria faberi (SETFA) [1] = assay: Pre-emergence biological efficacy, glasshouse pot test; format: in vivo; details: 312 h
How it was run: (§1)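 Glasshouse pot test: spray on soil one day after sowing, 1000 or 250 g/ha. Conditions 24/16 °C day/night, 14 h light, 65% humidity. Plant damage scored 0–100 at 13 days.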

Solanum nigrum (SOLNI) [2] = assay: as above; format: in vivo; details: 312 h
How it was run: as §1

[3] = test system: Ipomea hederaceae (IPOHE); assay: as above; format: in vivo; details: Ipomoea hederacea, 312 h
How it was run: as §1

[4] = test system: Amaranthus retoflexus (AMARE); assay: as above; format: in vivo; details: Amaranthus retroflexus, 312 h
How it was run: as §1

[5] = test system: Alopecurus myosuroides (ALOMY); assay: as above; format: in vivo; details: 312 h
How it was run: as §1

[6] = test system: Echinochloa crus-galli (ECHCG); assay: as above; format: in vivo; details: 312 h
How it was run: as §1

Setaria faberi (SETFA) [7] = assay: Post-emergence biological efficacy, glasshouse pot test; format: in vivo; details: 312 h
How it was run: (§2)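 Pot-grown weeds were sprayed 8 days after sowing with test compound in acetone/water (50:50) with 0.5% Tween 20 at 1000 or 250 g/ha. Glasshouse at 24/16° C day/night, 14 h light, 65% humidity. Damage scored 0-100 (100 = total damage) after 13 days.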

Solanum nigrum (SOLNI) [8] = assay: as above; format: in vivo; details: 312 h
How it was run: as §2

[9] = test system: Ipomea hederaceae (IPOHE); assay: as above; format: in vivo; details: Ipomoea hederacea, 312 h
How it was run: as §2

[10] = test system: Amaranthus retoflexus (AMARE); assay: as above; format: in vivo; details: Amaranthus retroflexus, 312 h
How it was run: as §2

[11] = test system: Alopecurus myosuroides (ALOMY); assay: as above; format: in vivo; details: 312 h
How it was run: as §2

[12] = test system: Echinochloa crus-galli (ECHCG); assay: as above; format: in vivo; details: 312 h
How it was run: as §2

[13] = pre-emergence, rate 1,000 g/ha, evaluated after 13 days (100=total damage to plant; 0=no damage), read-out: Percentage damage caused to weed species, SETFA
[14] = pre-emergence, rate 1,000 g/ha, evaluated after 13 days (100=total damage to plant; 0=no damage), read-out: Percentage damage caused to weed species, SOLNI
[15] = pre-emergence, rate 1,000 g/ha, evaluated after 13 days (100=total damage to plant; 0=no damage), read-out: Percentage damage caused to weed species, IPOHE
[16] = pre-emergence, rate 1,000 g/ha, evaluated after 13 days (100=total damage to plant; 0=no damage), read-out: Percentage damage caused to weed species, AMARE
[17] = pre-emergence, rate 1,000 g/ha, evaluated after 13 days (100=total damage to plant; 0=no damage), read-out: Percentage damage caused to weed species, ALOMY
[18] = pre-emergence, rate 1,000 g/ha, evaluated after 13 days (100=total damage to plant; 0=no damage), read-out: Percentage damage caused to weed species, ECHCG
[19] = Rate 1,000 g/ha, post-emergence spray, evaluated after 13 days (100=total damage to plant; 0=no damage to plant), read-out: Percentage damage caused to weed species, post-emergence, SETFA
[20] = Rate 1,000 g/ha, post-emergence spray, evaluated after 13 days (100=total damage to plant; 0=no damage to plant), read-out: Percentage damage caused to weed species, post-emergence, SOLNI
[21] = Rate 1,000 g/ha, post-emergence spray, evaluated after 13 days (100=total damage to plant; 0=no damage to plant), read-out: Percentage damage caused to weed species, post-emergence, IPOHE
[22] = Rate 1,000 g/ha, post-emergence spray, evaluated after 13 days (100=total damage to plant; 0=no damage to plant), read-out: Percentage damage caused to weed species, post-emergence, AMARE
[23] = Rate 1,000 g/ha, post-emergence spray, evaluated after 13 days (100=total damage to plant; 0=no damage to plant), read-out: Percentage damage caused to weed species, post-emergence, ALOMY
[24] = Rate 1,000 g/ha, post-emergence spray, evaluated after 13 days (100=total damage to plant; 0=no damage to plant), read-out: Percentage damage caused to weed species, post-emergence, ECHCG
[25] = pre-emergence, 1,000 g/ha, evaluated after 13 days (100=total damage; 0=no damage), read-out: Percentage damage SETFA
[26] = pre-emergence, 1,000 g/ha, evaluated after 13 days (100=total damage; 0=no damage), read-out: Percentage damage SOLNI
[27] = pre-emergence, 1,000 g/ha, evaluated after 13 days (100=total damage; 0=no damage), read-out: Percentage damage IPOHE
[28] = pre-emergence, 1,000 g/ha, evaluated after 13 days (100=total damage; 0=no damage), read-out: Percentage damage AMARE
[29] = pre-emergence, 1,000 g/ha, evaluated after 13 days (100=total damage; 0=no damage), read-out: Percentage damage ALOMY
[30] = pre-emergence, 1,000 g/ha, evaluated after 13 days (100=total damage; 0=no damage), read-out: Percentage damage ECHCG
[31] = post-emergence, 1,000 g/ha, evaluated after 13 days (100=total damage; 0=no damage), read-out: Percentage damage caused to weed species, SETFA
[32] = post-emergence, 1,000 g/ha, evaluated after 13 days (100=total damage; 0=no damage), read-out: Percentage damage caused to weed species, SOLNI
[33] = post-emergence, 1,000 g/ha, evaluated after 13 days (100=total damage; 0=no damage), read-out: Percentage damage caused to weed species, IPOHE
[34] = post-emergence, 1,000 g/ha, evaluated after 13 days (100=total damage; 0=no damage), read-out: Percentage damage caused to weed species, AMARE
[35] = post-emergence, 1,000 g/ha, evaluated after 13 days (100=total damage; 0=no damage), read-out: Percentage damage caused to weed species, ALOMY
[36] = post-emergence, 1,000 g/ha, evaluated after 13 days (100=total damage; 0=no damage), read-out: Percentage damage caused to weed species, ECHCG

Structure (SMILES)	melting point [°C]	pest or weed control at 1000 g/ha (Setaria faberi (SETFA) [1]; [13]) [%]	pest or weed control at 1000 g/ha (Solanum nigrum (SOLNI) [2]; [14]) [%]	pest or weed control at 1000 g/ha [3, 15] [%]	pest or weed control at 1000 g/ha [4, 16] [%]	pest or weed control at 1000 g/ha [5, 17] [%]	pest or weed control at 1000 g/ha [6, 18] [%]	pest or weed control at 1000 g/ha (Setaria faberi (SETFA) [7]; [19]) [%]	pest or weed control at 1000 g/ha (Solanum nigrum (SOLNI) [8]; [20]) [%]	pest or weed control at 1000 g/ha [9, 21] [%]	pest or weed control at 1000 g/ha [10, 22] [%]	pest or weed control at 1000 g/ha [11, 23] [%]	pest or weed control at 1000 g/ha [12, 24] [%]	further results
C=Cc1c(NCc2ccco2)nc(C2CC2)nc1C(=O)OC [Compound 31-125, 2-cyclopropyl-5-ethenyl-4-(furan-2-ylmethylamino)-6-methoxycarbonylpyrimidine]	85 to 86	20	80	100	90	20	20	10	80	50	90	10	0	
O=C(O)c1nc(C2CC2)nc(NCc2ccco2)c1Cl [Compound 1-125, 5-chloro-2-cyclopropyl-4-(furan-2-ylmethylamino)-pyrimidine-6-carboxylic acid]	150 to 152													pest or weed control at 1000 g/ha (Setaria faberi (SETFA) [1]; [25]): 70%; pest or weed control at 1000 g/ha (Solanum nigrum (SOLNI) [2]; [26]): 100%; pest or weed control at 1000 g/ha [3, 27]: 100%; pest or weed control at 1000 g/ha [4, 28]: 100%; pest or weed control at 1000 g/ha [5, 29]: 60%; pest or weed control at 1000 g/ha [6, 30]: 80%; pest or weed control at 1000 g/ha (Setaria faberi (SETFA) [7]; [31]): 90%; pest or weed control at 1000 g/ha (Solanum nigrum (SOLNI) [8]; [32]): 100%; pest or weed control at 1000 g/ha [9, 33]: 100%; pest or weed control at 1000 g/ha [10, 34]: 100%; pest or weed control at 1000 g/ha [11, 35]: 60%; pest or weed control at 1000 g/ha [12, 36]: 70%
COC(=O)c1nc(Cl)nc(NCc2ccco2)c1Cl [Compound 207-48, 2,5-dichloro-4-(furan-2-ylmethylamino)-6-methoxy carbonylpyrimidine]	110 to 112	20	40	40	30	20	10	10	60	30	30	10	10	
NC(=O)c1nc(C2CC2)nc(NCc2ccco2)c1Cl [Compound 201-125, 6-aminocarbonyl-5-chloro-2-cyclopropyl-4-(furan-2-ylmethylamino)-pyrimidine]	126 to 128	0	70	40	70	20	0	50	90	70	90	20	20	
COC(=O)c1nc(-c2ccc(Cl)cc2)nc(NCc2ccco2)c1Cl [Compound 40-125, 5-chloro-2-(4-chlorophenyl)-4-(furan-2-ylmethylamino)-6-methoxycarbonylpyrimidine]	132 to 134	40	80	20	100	40	50	90	90	90	100	50	70	
COC(=O)c1nc(-c2ccc(Cl)c(OC)c2F)nc(NCc2ccc(C)o2)c1Cl [Compound 112-135, 5-Chloro-2-(4-chloro-2-fluoro-3-methoxyphenyl)-6-methoxycarbonyl-4-[(5-methylfuran-2-yl)methylamino)-pyrimidine]		90	100	100	100	70	90	90	90	80	100	70	90	
CCOC(=O)C(Nc1nc(C2CC2)nc(C(=O)OC)c1Cl)c1ccccc1 (centres unmarked) [Compound 4-214, 5-Chloro-2-cyclopropyl-4-[(1-ethoxycarbonyl-1-phenyl)-methyl-amino]-6-methoxy-carbonylpyrimidine]														pest or weed control at 1000 g/ha (Setaria faberi (SETFA) [1]; [25]): 40%; pest or weed control at 1000 g/ha (Solanum nigrum (SOLNI) [2]; [26]): 90%; pest or weed control at 1000 g/ha [3, 27]: 100%; pest or weed control at 1000 g/ha [4, 28]: 100%; pest or weed control at 1000 g/ha [5, 29]: 20%; pest or weed control at 1000 g/ha [6, 30]: 60%; pest or weed control at 1000 g/ha (Setaria faberi (SETFA) [7]; [31]): 70%; pest or weed control at 1000 g/ha (Solanum nigrum (SOLNI) [8]; [32]): 80%; pest or weed control at 1000 g/ha [9, 33]: 100%; pest or weed control at 1000 g/ha [10, 34]: 100%; pest or weed control at 1000 g/ha [11, 35]: 50%; pest or weed control at 1000 g/ha [12, 36]: 70%
